According to patent US20240207458A1, “TARGETED ALPHA PARTICLE THERAPY FOR SOMATOSTATIN RECEPTOR 2 POSITIVE NEUROENDOCRINE TUMORS AND METASTASES” (H. LEE MOFFITT CANCER CENTER AND RESEARCH INSTITUTE, INC., priority 2021, published 2024):
Bridge positions count the residues as written; N and C are the ends. Square brackets hold non-standard residues; d marks the D form. Peptide text beside a SMILES is read from it. * marks the point of attachment. DOTA = O=C(O)CN1CCN(CC(=O)O)CCN(CC(=O)*)CCN(CC(=O)O)CC1

How the values were obtained:
[1] = 225Ac chelate, non-tumor bearing BALB/c mice
Description: BD of ^225Ac-DOTA-linker-TATE derivatives in non-tumor bearing BALB/c mice: The biodistribution studies for all 5 compounds were conducted (FIG. 4 and Table 1).

[2] = Log D7.4, miniaturized shake flask assay (n-octanol/PBS pH 7.4); type: physicochemical; conditions: for Log D7.4 of La^3+ chelate: La3+ chelate, n-octanol/PBS; for LogD7.4: metal chelate as named (Eu or La)
Description: Log D7.4 measurements of the La^3+-labeled derivatives: The octanol-water partition coefficients at pH7.4 (LogD7.4) of DOTA-linker-TATE derivatives were determined using the miniaturized shake flask assay (Table 1). Briefly, 1:1 n-octanol (HPLC grade) was added to the solution of the test compound in PBS buffer (NaH2PO4/Na2HPO4 buffer, pH 7.4). The mixture was well mixed and then two layers were separated by centrifuge. The concentrations of compound in each layer were determined by HPLC.

SSTR2 receptor = molecular target: T1, SSTR2 receptor (Homo sapiens, UniProt P30874); assay: whole-cell competition binding assay with Eu-DOTATATE as competing ligand (Hek293/SSTR2 cells); conditions: FIGS. 5 and 6
T1 construct: expressed in transfected cells; host or cells: Hek293/SSTR2 cells
Description: Competition curves were analyzed with GraphPad Prism software using the sigmoidal dose-response (variable slope) classical equation for nonlinear regression analysis.

[3] = mouse, in vivo
Description: (§1) Non-tumor bearing BALB/c mice were tested for toxicity and BD. […] RD was calculated using the BD data.
(§2) RD calculations determined pharmacokinetics parameters and absorbed α-emission dosages from ^225Ac and its daughters.

[4] = parameters: species or system BALB/c mice; conditions: mouse, in vivo
Description: as §1, §2

in vitro = in vitro ADME; conditions: human, plasma
Description: The compound was >95% intact after 5 days incubation.

T1 sequence (P30874 whole entry): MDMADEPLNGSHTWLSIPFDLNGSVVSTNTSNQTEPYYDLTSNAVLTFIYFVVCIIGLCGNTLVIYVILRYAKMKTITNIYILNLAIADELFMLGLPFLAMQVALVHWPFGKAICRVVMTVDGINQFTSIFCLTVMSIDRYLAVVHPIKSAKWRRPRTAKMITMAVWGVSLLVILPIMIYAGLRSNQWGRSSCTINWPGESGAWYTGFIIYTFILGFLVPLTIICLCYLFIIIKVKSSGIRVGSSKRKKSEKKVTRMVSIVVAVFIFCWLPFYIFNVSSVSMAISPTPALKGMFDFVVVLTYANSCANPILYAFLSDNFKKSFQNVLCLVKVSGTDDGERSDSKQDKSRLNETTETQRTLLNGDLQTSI

With `C[C@@H](O)[C@H](NC(=O)[C@@H]1CSSC[C@H](NC(=O)[C@@H](Cc2ccccc2)NC(=O)CN2CCN(CC(=O)O)CCN(CC(=O)O)CCN(CC(=O)O)CC2)C(=O)N[C@@H](Cc2ccc(O)cc2)C(=O)N[C@H](Cc2c[nH]c3ccccc23)C(=O)N[C@@H](CCCCN)C(=O)N[C@@H]([C@@H](C)O)C(=O)N1)C(=O)O` [Compound 1, DOTA-TATE, reference compound] the “Kidney/Liver uptake ratio (24 h)” value [1] was 3.6.
In the case of `C[C@@H](O)[C@H](NC(=O)[C@@H]1CSSC[C@H](NC(=O)[C@@H](Cc2ccccc2)NC(=O)CCCCCNC(=O)CN2CCN(CC(=O)O)CCN(CC(=O)O)CCN(CC(=O)O)CC2)C(=O)N[C@@H](Cc2ccc(O)cc2)C(=O)N[C@H](Cc2c[nH]c3ccccc23)C(=O)N[C@@H](CCCCN)C(=O)N[C@@H]([C@@H](C)O)C(=O)N1)C(=O)O` [Compound 2, DOTA-Ahx-TATE], the “Kidney/Liver uptake ratio (24 h)” value [1] is reported as 5.3.
For `C[C@@H](O)[C@H](NC(=O)[C@@H]1CSSC[C@H](NC(=O)[C@@H](Cc2ccccc2)NC(=O)[C@@H](CCC(=O)O)NC(=O)[C@@H](CCC(=O)O)NC(=O)CN2CCN(CC(=O)O)CCN(CC(=O)O)CCN(CC(=O)O)CC2)C(=O)N[C@@H](Cc2ccc(O)cc2)C(=O)N[C@H](Cc2c[nH]c3ccccc23)C(=O)N[C@@H](CCCCN)C(=O)N[C@@H]([C@@H](C)O)C(=O)N1)C(=O)O` [Compound 3, DOTA-di-D-Glu-TATE], the “Kidney/Liver uptake ratio (24 h)” value [1] was 16.5.
With `C[C@@H](O)[C@H](NC(=O)[C@@H]1CSSC[C@H](NC(=O)[C@@H](Cc2ccccc2)NC(=O)[C@@H](CCCCN)NC(=O)[C@@H](CCCCN)NC(=O)CN2CCN(CC(=O)O)CCN(CC(=O)O)CCN(CC(=O)O)CC2)C(=O)N[C@@H](Cc2ccc(O)cc2)C(=O)N[C@H](Cc2c[nH]c3ccccc23)C(=O)N[C@@H](CCCCN)C(=O)N[C@@H]([C@@H](C)O)C(=O)N1)C(=O)O` [Compound 4, DOTA-di-D-Lys-TATE] the “Kidney/Liver uptake ratio (24 h)” value [1] was 89.6.
With `C[C@@H](O)[C@H](NC(=O)[C@@H]1CSSC[C@H](NC(=O)[C@@H](Cc2ccccc2)NC(=O)[C@@H](CCCCN)NC(=O)[C@@H](CCCCN)NC(=O)CN2CCN(CC(=O)O)CCN(CC(=O)O)CCN(CC(=O)O)CC2)C(=O)N[C@@H](Cc2ccc(O)cc2)C(=O)N[C@H](Cc2c[nH]c3ccccc23)C(=O)N[C@@H](CCCCN)C(=O)N[C@@H]([C@@H](C)O)C(=O)N1)C(=O)O` [Compound 10, La-DOTA-D-Lys-D-Lys-TATE] the “Log D7.4 of La^3+ chelate” value [2] was −3.28 and the LogD7.4 [2] was −3.28.
With `C[C@@H](O)[C@H](NC(=O)[C@@H]1CSSC[C@H](NC(=O)[C@@H](Cc2ccccc2)NC(=O)[C@@H](CCC(=O)O)NC(=O)[C@@H](CCCCN)NC(=O)CN2CCN(CC(=O)O)CCN(CC(=O)O)CCN(CC(=O)O)CC2)C(=O)N[C@@H](Cc2ccc(O)cc2)C(=O)N[C@H](Cc2c[nH]c3ccccc23)C(=O)N[C@@H](CCCCN)C(=O)N[C@@H]([C@@H](C)O)C(=O)N1)C(=O)O` [Compound 11, La-DOTA-D-Lys-D-Glu-TATE] ({DOTA}-[dK][dE][dF]CY[dW]KTCT-OH; disulfide 4-9) the “Log D7.4 of La^3+ chelate” value [2] was −3.10 and the LogD7.4 [2] was −3.10.
With `C[C@@H](NC(=O)[C@@H](Cc1ccccc1)NC(=O)CN1CCN2CCN3CCN(CC1)CC(=O)[O][139La]([O]C(=O)C2)[O]C(=O)C3)C(=O)N[C@H](Cc1ccccc1)C(=O)N[C@H]1CSSC[C@@H](C(=O)N[C@H](C(=O)O)[C@@H](C)O)NC(=O)[C@H]([C@@H](C)O)NC(=O)[C@H](CCCCN)NC(=O)[C@@H](Cc2c[nH]c3ccccc23)NC(=O)[C@H](Cc2ccc(O)cc2)NC1=O` [Compound 14, 139La-DOTA-D-Phe-D-Ala-TATE] the “binding affinity for the SSTR2 receptor” value (SSTR2 receptor) was “high binding affinity (low nM Ki)”.
With `CC(C)C[C@@H](NC(=O)[C@@H](Cc1ccccc1)NC(=O)CN1CCN2CCN3CCN(CC1)CC(=O)[O][139La]([O]C(=O)C2)[O]C(=O)C3)C(=O)N[C@H](Cc1ccccc1)C(=O)N[C@H]1CSSC[C@@H](C(=O)N[C@H](C(=O)O)[C@@H](C)O)NC(=O)[C@H]([C@@H](C)O)NC(=O)[C@H](CCCCN)NC(=O)[C@@H](Cc2c[nH]c3ccccc23)NC(=O)[C@H](Cc2ccc(O)cc2)NC1=O` [Compound 15, 139La-DOTA-D-Phe-D-Leu-TATE] the “binding affinity for the SSTR2 receptor” value (SSTR2 receptor) was “high binding affinity (low nM Ki)”.
With `C[C@@H](O)[C@H](NC(=O)[C@@H]1CSSC[C@H](NC(=O)[C@@H](Cc2ccccc2)NC(=O)CN2CCN(CC(=O)O)CCN(CC(=O)O)CCN(CC(=O)O)CC2)C(=O)N[C@@H](Cc2ccc(O)cc2)C(=O)N[C@H](Cc2c[nH]c3ccccc23)C(=O)N[C@@H](CCCCN)C(=O)N[C@@H]([C@@H](C)O)C(=O)N1)C(=O)O` [^225Ac-DOTATATE, metal not drawn] the “appearance / indications of toxicity” value [3] was “no indications of toxicity”, the “primary route of elimination” value [4] was “renal route” and the remaining at 120 h (in vitro) was 96.7 ± 2.06%. The “% Intact TLC scanner” value (in vitro; 24 h) was 100.44 ± 0.88%, the “% Intact TLC scanner” value (in vitro; 72 h) was 99.27 ± 0.29% and the “% Intact TLC scanner” value (in vitro; 168 h) was 93.19 ± 1.50%. For the same compound, the “% Intact TLC scanner” value (in vitro; 240 h) was 90.29 ± 4.00%.
In the case of DOTA-D-Lys-D-Glu-TATE [Compound 5], the “Kidney/Liver uptake ratio (24 h)” value [1] is reported as 87.6.
In the case of “Eu-DOTA-TATE [Compound 6, reference compound]”, the LogD7.4 [2] is reported as −2.80.
